Assay results as given in ChEMBL document CHEMBL1909046, “DrugMatrix in vitro pharmacology data”.
*1 amine or outer side, *2 acyl side, *3 side chain or, on linkers, in order; H or OH if unused. Where a SMILES comes first, the peptide text is derived from it. Bridges are numbered along the chain shown (N, C = ends). Roman numbers before positions name the chains, in order. [ ]: non-standard residue; d: D form. Actinocin(1to9) = Cc1c2oc3c(C)ccc(C(=O)[*:2])c3nc-2c(C(=O)[*:1])c(N)c1=O; NMeV = CN[C@H](C(=O)O)C(C)C; Sar = CNCC(=O)O

What was measured:
Estrogen receptor = biological target: T1, Estrogen receptor (Homo sapiens, UniProt P03372); conditions: sf9; also: in other assays of this panel Not Active means under 50% inhibition at 10 µM
T1 sequence (P03372 whole entry): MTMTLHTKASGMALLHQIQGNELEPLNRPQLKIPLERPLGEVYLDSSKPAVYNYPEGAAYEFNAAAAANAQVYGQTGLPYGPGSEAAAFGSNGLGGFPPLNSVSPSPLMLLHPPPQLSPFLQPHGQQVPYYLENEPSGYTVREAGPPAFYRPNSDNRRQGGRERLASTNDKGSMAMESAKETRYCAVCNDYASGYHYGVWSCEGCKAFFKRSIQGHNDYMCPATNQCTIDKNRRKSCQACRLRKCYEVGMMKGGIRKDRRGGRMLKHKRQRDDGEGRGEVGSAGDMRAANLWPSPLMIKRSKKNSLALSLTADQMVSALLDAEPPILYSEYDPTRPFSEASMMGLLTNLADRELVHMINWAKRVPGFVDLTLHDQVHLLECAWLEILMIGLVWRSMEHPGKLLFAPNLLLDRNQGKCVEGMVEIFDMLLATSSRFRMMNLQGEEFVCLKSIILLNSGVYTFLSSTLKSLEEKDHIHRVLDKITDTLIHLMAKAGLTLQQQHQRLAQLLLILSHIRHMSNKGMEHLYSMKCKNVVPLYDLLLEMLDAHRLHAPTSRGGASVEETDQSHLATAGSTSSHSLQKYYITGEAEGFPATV

[1] = biological target: Mitogen-activated protein kinase 1 (Homo sapiens, UniProt P28482); test: DRUGMATRIX: Protein Serine/Threonine Kinase, ERK2 enzyme inhibition (substrate: Myelin Basic Protein); set-up: species or system Escherichia coli; conditions: Not Active = under 50% inhibition at 10 µM
Chain of Mitogen-activated protein kinase 1 (P28482 whole entry): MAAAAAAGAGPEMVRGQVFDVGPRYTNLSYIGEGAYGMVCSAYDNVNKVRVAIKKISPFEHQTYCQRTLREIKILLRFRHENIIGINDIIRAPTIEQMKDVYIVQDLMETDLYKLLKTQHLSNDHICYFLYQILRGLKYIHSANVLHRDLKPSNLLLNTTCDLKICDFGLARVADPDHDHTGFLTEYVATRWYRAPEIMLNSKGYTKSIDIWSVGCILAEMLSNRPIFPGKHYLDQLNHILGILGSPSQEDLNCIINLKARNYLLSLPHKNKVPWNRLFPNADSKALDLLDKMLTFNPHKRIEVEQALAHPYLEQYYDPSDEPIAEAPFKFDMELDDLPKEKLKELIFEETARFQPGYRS

[2] = biological target: Delta-type opioid receptor (Homo sapiens, UniProt P41143); assay type: cell membranes, HEK293, Membrane; conditions: hek293; also: in other assays of this panel Not Active means under 50% inhibition at 10 µM
Chain of Delta-type opioid receptor (P41143 whole entry): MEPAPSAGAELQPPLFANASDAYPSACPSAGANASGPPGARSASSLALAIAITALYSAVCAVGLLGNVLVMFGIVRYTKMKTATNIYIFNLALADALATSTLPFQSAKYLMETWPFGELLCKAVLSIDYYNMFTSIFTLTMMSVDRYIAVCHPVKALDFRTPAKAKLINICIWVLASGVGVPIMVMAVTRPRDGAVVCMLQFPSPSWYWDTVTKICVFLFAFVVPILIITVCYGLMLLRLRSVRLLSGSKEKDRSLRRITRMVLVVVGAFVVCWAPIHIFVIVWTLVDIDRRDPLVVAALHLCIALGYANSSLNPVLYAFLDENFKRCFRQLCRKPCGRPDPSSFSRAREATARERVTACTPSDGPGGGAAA

Carbonic anhydrase 2 = Carbonic anhydrase 2 (Homo sapiens, UniProt P00918); test: DRUGMATRIX: Carbonic Anhydrase II enzyme inhibition (substrate: 4-Nitrophenyl acetate (4-NPA)); assay type: tissue-based, Erythrocyte; conditions: erythrocyte; Not Active = under 50% inhibition at 10 µM
Cannabinoid receptor 1 = Cannabinoid receptor 1 (Homo sapiens, UniProt P21554); assay type: cell membranes, Membrane; conditions: chem-1; also: in other assays of this panel Not Active means under 50% inhibition at 10 µM
Chain of Cannabinoid receptor 1 (P21554 whole entry): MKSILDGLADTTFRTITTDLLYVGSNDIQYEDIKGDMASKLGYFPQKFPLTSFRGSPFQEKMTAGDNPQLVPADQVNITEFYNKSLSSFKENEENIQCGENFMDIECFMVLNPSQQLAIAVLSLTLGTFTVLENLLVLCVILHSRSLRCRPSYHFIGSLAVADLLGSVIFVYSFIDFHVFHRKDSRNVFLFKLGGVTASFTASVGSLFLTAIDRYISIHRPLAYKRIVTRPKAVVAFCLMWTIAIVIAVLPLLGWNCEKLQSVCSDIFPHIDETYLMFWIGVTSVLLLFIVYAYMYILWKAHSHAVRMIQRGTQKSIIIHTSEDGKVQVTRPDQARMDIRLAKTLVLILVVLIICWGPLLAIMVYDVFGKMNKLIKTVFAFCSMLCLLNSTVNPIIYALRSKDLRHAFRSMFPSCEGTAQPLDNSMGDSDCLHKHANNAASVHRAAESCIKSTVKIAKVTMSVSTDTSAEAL

Cytochrome P450 1A2 = biological target: T2, Cytochrome P450 1A2 (Homo sapiens, UniProt P05177); conditions: bti-tn-5b1-4; also: in other assays of this panel Not Active means under 50% inhibition at 10 µM
T2 sequence (P05177 whole entry): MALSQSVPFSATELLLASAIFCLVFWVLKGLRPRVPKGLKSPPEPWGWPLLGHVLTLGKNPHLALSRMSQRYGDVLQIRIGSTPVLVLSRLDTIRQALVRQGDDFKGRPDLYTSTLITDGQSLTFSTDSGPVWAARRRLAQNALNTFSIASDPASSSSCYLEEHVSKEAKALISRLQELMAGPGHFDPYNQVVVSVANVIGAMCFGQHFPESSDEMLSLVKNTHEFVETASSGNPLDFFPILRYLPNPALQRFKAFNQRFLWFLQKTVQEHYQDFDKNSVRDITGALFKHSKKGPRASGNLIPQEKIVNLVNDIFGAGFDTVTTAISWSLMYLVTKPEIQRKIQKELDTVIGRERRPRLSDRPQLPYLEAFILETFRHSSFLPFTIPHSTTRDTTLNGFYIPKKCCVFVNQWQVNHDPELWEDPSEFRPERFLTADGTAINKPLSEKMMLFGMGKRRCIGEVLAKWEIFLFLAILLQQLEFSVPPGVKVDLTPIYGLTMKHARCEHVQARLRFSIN

[3] = biological target: T3, 3-hydroxy-3-methylglutaryl-coenzyme A reductase (Homo sapiens, UniProt P04035); set-up: species or system Escherichia coli
T3 sequence (P04035 whole entry): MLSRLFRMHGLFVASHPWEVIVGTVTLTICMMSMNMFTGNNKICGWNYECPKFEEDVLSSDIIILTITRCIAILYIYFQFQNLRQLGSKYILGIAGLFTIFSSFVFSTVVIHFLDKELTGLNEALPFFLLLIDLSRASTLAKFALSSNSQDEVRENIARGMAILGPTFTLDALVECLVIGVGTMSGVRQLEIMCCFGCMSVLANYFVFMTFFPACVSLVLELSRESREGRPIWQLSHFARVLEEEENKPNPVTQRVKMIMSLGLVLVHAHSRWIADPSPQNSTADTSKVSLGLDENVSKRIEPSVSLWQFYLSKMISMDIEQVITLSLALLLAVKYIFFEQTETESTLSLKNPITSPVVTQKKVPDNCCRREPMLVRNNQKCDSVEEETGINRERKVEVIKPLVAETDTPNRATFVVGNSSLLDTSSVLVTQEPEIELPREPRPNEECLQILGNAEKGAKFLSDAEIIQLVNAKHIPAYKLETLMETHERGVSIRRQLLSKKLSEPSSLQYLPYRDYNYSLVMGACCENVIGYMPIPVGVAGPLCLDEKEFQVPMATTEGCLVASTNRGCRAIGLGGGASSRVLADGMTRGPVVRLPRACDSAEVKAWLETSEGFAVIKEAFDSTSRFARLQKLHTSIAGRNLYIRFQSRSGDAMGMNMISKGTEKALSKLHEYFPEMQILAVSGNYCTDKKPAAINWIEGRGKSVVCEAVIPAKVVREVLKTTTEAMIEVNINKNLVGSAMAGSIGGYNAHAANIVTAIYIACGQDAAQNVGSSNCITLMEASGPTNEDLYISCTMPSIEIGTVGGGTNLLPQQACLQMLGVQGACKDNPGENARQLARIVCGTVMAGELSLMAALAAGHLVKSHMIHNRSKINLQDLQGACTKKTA

[4] = DRUGMATRIX: Platelet-Derived Growth Factor (PDGF) radioligand binding (ligand: [125I] PDGF); assay type: cell-based; conditions: nih3t3; Not Active = under 50% inhibition at 10 µM
Endothelin-1 receptor = biological target: T4, Endothelin-1 receptor (Homo sapiens, UniProt P25101); assay type: cell membranes, CHO-K1, Membrane; conditions: cho-k1; also: in other assays of this panel Not Active means under 50% inhibition at 10 µM
T4 sequence (P25101 whole entry): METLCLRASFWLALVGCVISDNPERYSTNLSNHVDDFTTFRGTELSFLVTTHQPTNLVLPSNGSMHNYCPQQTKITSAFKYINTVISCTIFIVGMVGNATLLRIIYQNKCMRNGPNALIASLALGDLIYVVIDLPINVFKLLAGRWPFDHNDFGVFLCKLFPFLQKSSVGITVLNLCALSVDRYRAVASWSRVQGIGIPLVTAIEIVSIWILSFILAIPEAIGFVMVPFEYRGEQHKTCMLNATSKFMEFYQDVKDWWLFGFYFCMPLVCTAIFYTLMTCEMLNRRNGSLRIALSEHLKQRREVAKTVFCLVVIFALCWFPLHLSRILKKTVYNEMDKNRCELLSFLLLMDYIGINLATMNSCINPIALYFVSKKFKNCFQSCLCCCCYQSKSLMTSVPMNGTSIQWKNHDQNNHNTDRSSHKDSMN

Structure (SMILES)	IC50 (Estrogen receptor)	IC50 [1]	IC50 [2]	IC50 (Carbonic anhydrase 2)	IC50 (Cannabinoid receptor 1)	IC50 (Cytochrome P450 1A2)	Ki (Cytochrome P450 1A2)	IC50 [3]	IC50 [4]	Ki [4]	IC50 (Endothelin-1 receptor)	IC50 ([1]; read-out: IC50) [µM]
CC1=C2C(=CO[C@H](C)[C@H]2C)C(O)=C(C(=O)O)C1=O [CITRININ]	Not Active	Not Active	Not Active	Not Active	Not Active	Not Active	Not Active	Not Active	Not Active	Not Active	Not Active	–
Cc1cc(C(C#N)c2ccc(Cl)cc2)c(Cl)cc1NC(=O)c1cc(I)cc(I)c1O (stereo not drawn) [CLOSANTEL]	Not Active	–	Not Active	Not Active	Not Active	Not Active	Not Active	Not Active	Not Active	Not Active	Not Active	1.43
Cc1onc(-c2ccccc2Cl)c1C(=O)N[C@@H]1C(=O)N2[C@@H]1SC(C)(C)[C@@H]2C(=O)O [CLOXACILLIN]	Not Active	Not Active	Not Active	Not Active	Not Active	Not Active	Not Active	Not Active	Not Active	Not Active	Not Active	–
CC1CC(OC(=O)C(O)c2ccccc2)CC(C)(C)C1 (stereo not drawn) [CYCLANDELATE]	Not Active	Not Active	Not Active	Not Active	Not Active	Not Active	Not Active	Not Active	Not Active	Not Active	Not Active	–
Cc1c2oc3c(C)ccc(C(=O)N[C@@H]4C(=O)N[C@H](C(C)C)C(=O)N5CCC[C@H]5C(=O)N(C)CC(=O)N(C)[C@@H](C(C)C)C(=O)O[C@@H]4C)c3nc-2c(C(=O)N[C@@H]2C(=O)N[C@H](C(C)C)C(=O)N3CCC[C@H]3C(=O)N(C)CC(=O)N(C)[C@@H](C(C)C)C(=O)O[C@@H]2C)c(N)c1=O [DACTINOMYCIN] (I: T[dV]P[Sar][NMeV] / II: T[dV]P[Sar][NMeV]; ester I:1-I:C, II:1-II:C; linker I:N-II:N via Actinocin(1to9))	Not Active	Not Active	Not Active	Not Active	Not Active	Not Active	Not Active	Not Active	Not Active	Not Active	Not Active	–
Cc1c(O)c(=O)ccn1C [DEFERIPRONE]	Not Active	Not Active	Not Active	Not Active	Not Active	Not Active	Not Active	Not Active	Not Active	Not Active	Not Active	–
CNCCCN1c2ccccc2CCc2ccccc21 [DESIPRAMINE]	Not Active	Not Active	Not Active	Not Active	Not Active	Not Active	Not Active	Not Active	Not Active	Not Active	Not Active	–
CC(C)[C@@]1(NC(=O)[C@@H]2C[C@@H]3c4cccc5[nH]cc(c45)C[C@H]3N(C)C2)O[C@@]2(O)[C@@H]3CCCN3C(=O)[C@H](Cc3ccccc3)N2C1=O.CS(=O)(=O)O [DIHYDROERGOCRISTINE MESYLATE]	Not Active	Not Active	Not Active	Not Active	Not Active	Not Active	Not Active	Not Active	Not Active	Not Active	Not Active	–
O=C(CCCN1CC=C(n2c(=O)[nH]c3ccccc32)CC1)c1ccc(F)cc1 [DROPERIDOL]	Not Active	Not Active	Not Active	Not Active	Not Active	Not Active	Not Active	Not Active	Not Active	Not Active	Not Active	–
CC(C)[C@H]1C(=O)N2CCC[C@H]2[C@]2(O)O[C@](NC(=O)[C@@H]3C=C4c5cccc6[nH]cc(c56)C[C@H]4N(C)C3)(C(C)C)C(=O)N12 [ERGOCORNINE]	Not Active	Not Active	Not Active	Not Active	Not Active	Not Active	Not Active	Not Active	Not Active	Not Active	Not Active	–
OC(Cn1cncn1)(Cn1cncn1)c1ccc(F)cc1F [FLUCONAZOLE]	Not Active	Not Active	Not Active	Not Active	Not Active	Not Active	Not Active	Not Active	Not Active	Not Active	Not Active	–
CC(C)C(=O)Nc1ccc([N+](=O)[O-])c(C(F)(F)F)c1 [FLUTAMIDE]	Not Active	Not Active	Not Active	Not Active	Not Active	Not Active	Not Active	Not Active	Not Active	Not Active	Not Active	–
CC1(C)O[C@@H]2C[C@H]3[C@@H]4CCC5=CC(=O)CC[C@]5(C)[C@@]4(F)[C@@H](O)C[C@]3(C)[C@]2(C(=O)CCl)O1 [HALCINONIDE]	Not Active	Not Active	Not Active	Not Active	Not Active	Not Active	Not Active	Not Active	Not Active	Not Active	Not Active	–
